The subject of data set [1] is mean arterial pressure and heart rate of anesthetized rats. The conditions noted are these: for Time of second Δmax (superscript) / Time of Δmax (superscript) / t1/2 / Δmax (Mean Arterial Pressure) / Δmax, second value in parentheses: Table 5; for Mean Arterial Pressure: b338-b348 = 0,1,5,10,15,30,60,120,180,240,360 min. The method, then:
Male Wistar rats (250-330 g) were anesthetized with thiopentone sodium (INTRAVAL®, 120 mg/kg i.p.). The trachea was cannulated to facilitate respiration. The right carotid artery was cannulated and connected to a pressure transducer (Spectramed P23XL), for the measurement of mean arterial pressure (MAP) and heart rate (HR) which were continuously recorded on a 4-channel Grass 7D polygraph recorder (Grass, Mass., U.S.A.). Body temperature was maintained at 37±1°C. by means of a rectal probe thermometer attached to a homeothermic blanket control unit (Harvard Apparatus Ltd.).

Data set [2] has as its system Human Platelet Aggregation (collagen-induced). Put plainly: Anti-aggregatory activity, 1 min incubation with PRP, collagen-induced (Example 8). In kind it is cell-based. The conditions noted are these: 1 minute with PRP. How it is done:
(§1) Blood from healthy human volunteers who had not taken any medicine for at least 14 days was collected by venopuncture into 3.15% (w/v) tri-sodium citrate (9:1 v/v). The blood was centrifuged at 800 g for 15 minutes to produce PRP. The PRP was further centrifuged at 12,000 g for 1 minute to produce PPP. A total of 12 volunteers donated blood for the study.
(§2) Platelet aggregation was studied using a dual channel Payton aggregometer calibrated with PRP (0%) and PPP (100%) with respect to the degree of light transmission. Aliquots of PRP (500 μl) were added to siliconized cuvettes, stirred (1000 revs/min) and warmed to 37° C. The platelets were incubated for 1 minute to establish a stable baseline prior to investigation. A submaximal concentration of the aggregating agent collagen (1 μg/ml) was added to the PRP and the platelet aggregation was monitored as the increase in light transmission observed over a 4 minute period.
The percentage inhibition of the platelet aggregation was calculated using the peak increase in light transmission observed over the 4 minute period following addition of collagen, as compared to that of control. This experiment was repeated using PRP from at least three human volunteers for each compound under study.

Data set [3] has the same test system. Put plainly: Anti-aggregatory response after incubation with PPP (Example 8). In kind it is cell-based. How it is done: as §1, §2
(§3) After the incubation period, an aliquot of the PPP or aqueous vehicle (50 μl) was added to fresh PRP (450 μl) for determination of anti-platelet activity. This experiment was repeated using PPP from at least three human volunteers for each compound.

Data set [4] concerns mean arterial pressure and heart rate of anesthetized rats. Put plainly: Systemic hemodynamic effects, intravenous, anesthetized rats (Example 9). In kind it is in vivo, rat (male Wistar). How it is done: Among other effects, lowering of the blood pressure inside the blood vessels is beneficial for the treatment of congestive heart failure by reducing the vascular resistance of the blood flow which substantially reduces the work load imposed on the heart. […] This study involved the use of male Wistar rats anaesthetized with thiopentone sodium ([…]®, 120 mg kg^-1 i.p.). The trachea was cannulated to facilitate breathing.

Data set [5] concerns Human Platelet Aggregation (collagen-induced). Put plainly: Anti-aggregatory response after incubation with aqueous vehicle (Example 8). The class given is cell-based. The settings on record: up to 4 hours at 37° C. The method, then:
as §1, §2, §3

For data set [6] the following is noted: background; cited from earlier work.

Where “and” joins values, the source holds several entries; their conditions need not be identical. Equal values may be shown once. Entries after “also recorded” stand apart in the source; their conditions may differ. Read-outs that look alike come from different tables or passages of the source.

Consider `CCCCCC(CCC1C(OC(C)=O)CC2Cc3c(cccc3OCC(=O)O)CC21)OC(C)=O` (stereo not drawn) [Compound 4, Compound X Diacetate], for which, in data set [1] (1 mg/kg s.c.), the “effective life of the fall in MAP” value was greater than 300 min, the “maximum fall in MAP” value is on record as “about 26 mm Hg”, the “time of maximum fall in MAP” value is 60 min and the “Time of second Δmax (superscript)” value was found to be 210 min. In data set [1] (1 mg/kg s.c.), the “Time of Δmax (superscript)” value came to 60 min; the t1/2 was greater than 5 h; the “Δmax (Mean Arterial Pressure)” value came out at 26 ± 6 mm Hg; the “Δmax, second value in parentheses” value is 28 ± 7 mm Hg. The “Mean Arterial Pressure” value in data set [1] (1 mg/kg s.c.) was 87 ± 3 mm Hg and 94 ± 3 mm Hg. Also, in data set [1] (1 mg/kg s.c., second fall), the “another fall in MAP” value came out at 28 mm Hg and the “time of another fall in MAP” value was determined as 210 min. In data set [1] (3 mg/kg s.c.), the “effective life of the fall in MAP” value was greater than 330 min, the “Time of Δmax (superscript)” value is 30 min, the t1/2 was greater than 5.5 h and the “Δmax (Mean Arterial Pressure)” value stood at 41 mm Hg. The “Mean Arterial Pressure” value in data set [1] (3 mg/kg s.c.) worked out at 87 ± 4 mm Hg. Besides, in data set [1] (10 mg/kg s.c.), the “effective life of the fall in MAP” value is greater than 300 min, the “Time of second Δmax (superscript)” value turned out to be 150 min, the “Time of Δmax (superscript)” value is 60 min and the t1/2 is greater than 5 h. Further, in data set [1] (10 mg/kg s.c.), the “Δmax (Mean Arterial Pressure)” value is recorded as 45 ± 5 mm Hg and the “Δmax, second value in parentheses” value was found to be 48 ± 6 mm Hg. Moreover, in data set [2], the “inhibiting aggregation by 50% concentration (IC50)” value was 68 ± 2 µg/mL and the “inhibition of platelet aggregation, concentration dependence” value was “concentration-dependent inhibition of platelet aggregation”. Moreover, in data set [2] (X 30 and 100 ng/ml, 4 300 μg/ml, 6 3 mg/ml, 7 10 mg/ml), the “inhibition of aggregation response at highest concentrations” value is “completely inhibited the aggregation response”. Besides, in data set [3] (after 15 minutes in PPP), the IC50 was found to be 5 ± 0.2 µg/mL and the “increase in anti-platelet activity” value is roughly 10 fold. The “increase in activity on incubation with plasma or aqueous vehicle” value in data set [3] (initial ten (10) minute period, plasma or aqueous vehicle) is roughly 10 fold. Moreover, the “effect of incubation with PPP on anti-platelet activity” value in data set [3] (up to 4 hours at 37° C) is reported as “no further increase in activity; also recorded: this increase in activity was no greater after four (4) hours of incubation”. In data set [4] (1 mg/kg i.v.), the “effective life of the fall in MAP” value was “about 110 minutes”, the “maximum fall in MAP” value is on record as “about 30 mm Hg” and the “time of maximum fall in MAP” value amounted to 30 min. The “effective life of the fall in MAP” value in data set [4] (comparison of Compound 4 with Compound X (1 mg/kg i.v.)) was “over 90 minutes”. The “fall in MAP” value in data set [4] (i.v., Compound X 1 mg/kg, Compound 4 1-10 mg/kg, others 3-30 mg/kg) is “rapid, dose-related fall in MAP; also recorded: rapid and substantial falls in MAP”. Also, the “effect of incubation with aqueous vehicle/saline/buffer on anti-platelet activity” value in data set [5] is “This effect was also observed during incubation of the compound in saline”.
In the case of `CCCCC[C@H](O)/C=C/[C@@H]1[C@H]2C/C(=C/CCCC(=O)O)O[C@H]2C[C@H]1O` [prostacyclin], the effective life entry in data set [6] was “less than six”.

As a reminder, the IC50 is the midpoint of a concentration-inhibition curve. Read a high IC50 as lower potency.
